# Assay results as given in PMC6917776, “Discovery of a chemical probe for PRDM9” (Nature Communications, 2019).
# Test system: H3K4me3 at known PRDM9 binding loci and control TSS loci
# Test: ChIP-qPCR of H3K4me3 in PRDM9-transfected HEK293T cells
# Assay type: cell-based, human
# Conditions: for H3K4me3 ChIP-qPCR 2^-dCq (IP-Input) / 2^-dCq (H3K4me3 IP relative to H3): Replicate 2; for H3K4me3 ChIP-qPCR 2^-dCq (IP-Input): H3K4me3 antibody relative to H3; for <Cq>: mean of two wells, Antibody H3K4me3, Plasmid PRDM9WT, Figure 7 Replicate 2
# Protocol: ChIP-qPCR assays were then conducted on known PRDM9 binding loci[26]. Ectopic expression of PRDM9^WT increased trimethylation of H3K4 (H3K4me3) at previously described PRDM9-specific intragenic and intergenic regions[26] (Fig. 7; Supplementary Fig. 12). […] The observed increases in H3K4me3 levels at intragenic and intergenic regions are therefore due directly to PRDM9 PR domain-dependent methylation activity, rather than through recruitment of other H3K4 methyltransferases or other indirect mechanisms.
# ChIP qPCR analyses of H3K4me3 methylation levels of known PRDM9-bound loci and control loci. […] Concentrations used (µM) are indicated below each plot. (a–d) represent reported loci of PRDM9 methylation; (e, f) are transcriptional start sites (TSSs) which are not known loci of PRDM9 methylation. Data are normalized to total H3 and are presented as the mean ± upper and lower limits from two replicates. Representative plots of two independent experiments are shown in this figure. The coordinates and the genomic features associated with the assayed loci are indicated above each plot. Left Tailed Student's t-tests were performed by comparing DMSO (0 µM) treated cells to compound treated cells that have been transfected with the same plasmids. *p-value < 0.05 and **p-value < 0.01. Note that here we show a representative of two independent experiments (mean ± s.d of technical replicates) for our ChIP-qPCR experiments. Data obtained using this technique are inherently noisy due to stochastic differences in gene activity/histone positioning. Data are thus typically presented as representative rather than averaged. Source data are provided as a Source Data file.
# HEK293T cells were transfected with 37.5 μg empty pcDNA3.1(+) vector (Invitrogen), or the same vector expressing either wild-type PRDM9 (PRDM9^WT) or a catalytically dead PRDM9 mutant (PRDM9^Mut) and 75 μL of Lipofectamine 2000 (Invitrogen) in 6 mL of Opti-MEM (GIBCO) for 48 h. […] ChIP assays were then performed as previously described. Briefly, cells were fixed in 1% formaldehyde and the fixation reaction was quenched in a final concentration of 0.1 M glycine. Cell pellets were first lysed in LB1 (50 mM HEPES-KOH pH 7.5, 140 mM NaCl, 1 mM EDTA, 10% Glycerol, 0.5% Igepal, 0.25% TritonX), washed once in LB2 Buffer (10 mM Tris-HCl pH 8, 200 mM NaCl, 1 mM EDTA, 0.5 mM EGTA) and finally sonicated in LB3 buffer (10 mM Tris-HCl pH 8, 100 mM NaCl, 1 mM EDTA, 0.5 mM EGTA, 0.1% Sodium deoxycholate, 0.5% N-laurosylsarcosine) using a bioruptor (Diagenode). Thereafter, 50 μg of chromatin was subjected to ChIP using the following antibodies purchased from Abcam: α-H3K4me3 (1:200, ab8580, lot:GR3207339-1) and α-H3 (1:250, ab1791, lot:GR300978-4). After extensive washing in RIPA wash buffer (50 mM HEPES-KOH pH 7.6, 100 mM LiCl, 1 mM EDTA, 1% Igepal, 0.7% Sodium Deoxycholate), DNA was eluted from beads. The eluted DNA was treated with RNase A and Proteinase K and purified using the QIAGEN PCR purification kit. qPCR was then carried out targeting the indicated loci (Supplementary Table 3). Upper and lower limits were defined by |2^−(dCq±s) − 2^−(∆Cq)|, where s = √((Standard deviation of Input Cq)^2 + (Standard deviation of Target Cq)^2). […]
# formation. ChIP qPCR analyses of H3K4me3 methylation levels at known PRDM9-bound and control loci. Cells transfected with empty vector (negative control) or vectors overexpressing either wild-type PRDM9 (PRDM9 WT) or catalytically dead PRDM9 (PRDM9 MUT) were […]
# Panels a-d represent reported loci of […]
# (1 picture or pasted object on this page, not shown here)
# PRDM9 methylation; e-f are TSSs which are not known sites of PRDM9 methylation. Data are normalized to total H3 and are presented as the mean ± upper and lower limits from two […]
smiles,measurement,setting,value
COc1cc(OC)cc(-c2noc(N3CCN(C)C4(CCN(c5ccnc(C)c5)CC4)C3)n2)c1 [MRK-740],H3K4me3 ChIP-qPCR 2^-dCq (IP-Input),"chr2:40281930-40282015 Intragenic (SLC8A1-AS1), Figure 7 C, PRDM9WT, Drug Conc. 10",2.181
same,2^-dCq (H3K4me3 IP relative to H3),"chr2:40281930-40282015 Intragenic (SLC8A1-AS1), Empty Vector, Drug Conc. 5, Figure S12 C",0.9795
same,2^-dCq (H3K4me3 IP relative to H3),"chr2:40281930-40282015 Intragenic (SLC8A1-AS1), PRDM9MUT, Drug Conc. 5, Figure S12 C",0.2048
same,2^-dCq (H3K4me3 IP relative to H3),"chr2:40281930-40282015 Intragenic (SLC8A1-AS1), PRDM9WT, Drug Conc. 5, Figure S12 C",5.934
same,H3K4me3 ChIP-qPCR 2^-dCq (IP-Input),"chr2:128811847-128811944 (Intergenic), Figure 7 A, Empty Vector, Drug Conc. 2.5",1.167
same,H3K4me3 ChIP-qPCR 2^-dCq (IP-Input),"chr2:128811847-128811944 (Intergenic), Figure 7 A, Empty Vector, Drug Conc. 5",1.563
same,H3K4me3 ChIP-qPCR 2^-dCq (IP-Input),"chr2:128811847-128811944 (Intergenic), Figure 7 A, Empty Vector, Drug Conc. 10",1.267
same,H3K4me3 ChIP-qPCR 2^-dCq (IP-Input),"chr2:128811847-128811944 (Intergenic), Figure 7 A, PRDM9WT, Drug Conc. 2.5",4.007
same,H3K4me3 ChIP-qPCR 2^-dCq (IP-Input),"chr2:128811847-128811944 (Intergenic), Figure 7 A, PRDM9WT, Drug Conc. 5",4.852
same,H3K4me3 ChIP-qPCR 2^-dCq (IP-Input),"chr2:128811847-128811944 (Intergenic), Figure 7 A, PRDM9WT, Drug Conc. 10",1.932
same,2^-dCq (H3K4me3 IP relative to H3),"chr2:128811847-128811944 (Intergenic), Empty Vector, Drug Conc. 5, Figure S12 A",1.563
same,2^-dCq (H3K4me3 IP relative to H3),"chr2:128811847-128811944 (Intergenic), PRDM9MUT, Drug Conc. 5, Figure S12 A",0.3928
same,2^-dCq (H3K4me3 IP relative to H3),"chr2:128811847-128811944 (Intergenic), PRDM9WT, Drug Conc. 5, Figure S12 A",4.852
same,2^-dCq (H3K4me3 IP relative to H3),"chr3:165514798-165514911 Intragenic (BCHE), Empty Vector, Drug Conc. 5, Figure S12 D",0.9187
same,2^-dCq (H3K4me3 IP relative to H3),"chr3:165514798-165514911 Intragenic (BCHE), PRDM9MUT, Drug Conc. 5, Figure S12 D",0.2392
same,2^-dCq (H3K4me3 IP relative to H3),"chr3:165514798-165514911 Intragenic (BCHE), PRDM9WT, Drug Conc. 5, Figure S12 D",7.878
same,H3K4me3 ChIP-qPCR 2^-dCq (IP-Input),"chr8:49932778-49932856 (Intergenic), Figure 7 B, Empty Vector, Drug Conc. 2.5",0.8281
same,H3K4me3 ChIP-qPCR 2^-dCq (IP-Input),"chr8:49932778-49932856 (Intergenic), Figure 7 B, Empty Vector, Drug Conc. 5",1.029
same,H3K4me3 ChIP-qPCR 2^-dCq (IP-Input),"chr8:49932778-49932856 (Intergenic), Figure 7 B, Empty Vector, Drug Conc. 10",0.9528
same,H3K4me3 ChIP-qPCR 2^-dCq (IP-Input),"chr8:49932778-49932856 (Intergenic), Figure 7 B, PRDM9WT, Drug Conc. 2.5",8.6274
same,H3K4me3 ChIP-qPCR 2^-dCq (IP-Input),"chr8:49932778-49932856 (Intergenic), Figure 7 B, PRDM9WT, Drug Conc. 5",4.182
same,H3K4me3 ChIP-qPCR 2^-dCq (IP-Input),"chr8:49932778-49932856 (Intergenic), Figure 7 B, PRDM9WT, Drug Conc. 10",1.779
same,2^-dCq (H3K4me3 IP relative to H3),"chr8:49932778-49932856 (Intergenic), Empty Vector, Drug Conc. 5, Figure S12 B",1.029
same,2^-dCq (H3K4me3 IP relative to H3),"chr8:49932778-49932856 (Intergenic), PRDM9MUT, Drug Conc. 5, Figure S12 B",0.2948
same,2^-dCq (H3K4me3 IP relative to H3),"chr8:49932778-49932856 (Intergenic), PRDM9WT, Drug Conc. 5, Figure S12 B",4.182
same,2^-dCq (H3K4me3 IP relative to H3),"chr12:6643945-6644023 TSS (GAPDH), Empty Vector, Drug Conc. 5, Figure S12 E",83.0384
same,2^-dCq (H3K4me3 IP relative to H3),"chr12:6643945-6644023 TSS (GAPDH), PRDM9MUT, Drug Conc. 5, Figure S12 E",72.3311
same,2^-dCq (H3K4me3 IP relative to H3),"chr12:6643945-6644023 TSS (GAPDH), PRDM9WT, Drug Conc. 5, Figure S12 E",130.72
same,2^-dCq (H3K4me3 IP relative to H3),"chr19:8510167-8510261 TSS (HNRNPM), Empty Vector, Drug Conc. 5, Figure S12 F",107.435
same,2^-dCq (H3K4me3 IP relative to H3),"chr19:8510167-8510261 TSS (HNRNPM), PRDM9MUT, Drug Conc. 5, Figure S12 F",76.5131
same,2^-dCq (H3K4me3 IP relative to H3),"chr19:8510167-8510261 TSS (HNRNPM), PRDM9WT, Drug Conc. 5, Figure S12 F",143.684
same,<Cq>,Drug Conc. 2.5,20.8229
same,<Cq>,Drug Conc. 5,20.8538
same,<Cq>,Drug Conc. 10,21.2288
